From US7786141B2 (Vertex Pharmaceuticals Incorporated, priority 2004, dated 2010) come the findings set out here.

One test has as its target T1, M1 muscarinic receptor (Homo sapiens, UniProt P11229).
T1 construct: expressed in transfected cells; host or cells: CHO (M1-CHO)
T1 sequence (P11229 1-460): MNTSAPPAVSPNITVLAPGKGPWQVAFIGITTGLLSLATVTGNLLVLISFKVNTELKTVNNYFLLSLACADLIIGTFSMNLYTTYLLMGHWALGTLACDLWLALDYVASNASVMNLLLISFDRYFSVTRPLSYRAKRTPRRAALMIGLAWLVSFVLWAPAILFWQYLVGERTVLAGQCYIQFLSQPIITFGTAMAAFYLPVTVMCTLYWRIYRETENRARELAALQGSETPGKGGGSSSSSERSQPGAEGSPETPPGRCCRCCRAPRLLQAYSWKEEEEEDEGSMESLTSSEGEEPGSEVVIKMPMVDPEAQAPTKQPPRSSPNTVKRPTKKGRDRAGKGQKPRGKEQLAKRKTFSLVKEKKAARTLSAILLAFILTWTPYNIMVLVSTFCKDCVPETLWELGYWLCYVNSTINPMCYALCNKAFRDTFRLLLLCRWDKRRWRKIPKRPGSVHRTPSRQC
The experiment in a line: Functional mobilization of intracellular calcium (FLIPR) in M1-CHO cells. The format is cell-based. Conditions: Table 4; for Emax: 100% efficacy is the maximum response obtained with the Carbachol control; for M1 Activity: modulating M1 receptor. In outline:
(§1)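 Intracellular calcium rise is measured by FLIPR fluorescence over 60 sec in CHO cells carrying human M1 or M4 receptors. Compounds are tested alone as agonists, or pre-incubated 15 min (or co-applied) ahead of carbachol at its EC80 to detect inhibition.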

The next test addresses T2, M4 muscarinic receptor (Homo sapiens, UniProt P08173).
T2 construct: expressed in transfected cells; host or cells: CHO (M4-CHO)
T2 sequence (P08173 1-479): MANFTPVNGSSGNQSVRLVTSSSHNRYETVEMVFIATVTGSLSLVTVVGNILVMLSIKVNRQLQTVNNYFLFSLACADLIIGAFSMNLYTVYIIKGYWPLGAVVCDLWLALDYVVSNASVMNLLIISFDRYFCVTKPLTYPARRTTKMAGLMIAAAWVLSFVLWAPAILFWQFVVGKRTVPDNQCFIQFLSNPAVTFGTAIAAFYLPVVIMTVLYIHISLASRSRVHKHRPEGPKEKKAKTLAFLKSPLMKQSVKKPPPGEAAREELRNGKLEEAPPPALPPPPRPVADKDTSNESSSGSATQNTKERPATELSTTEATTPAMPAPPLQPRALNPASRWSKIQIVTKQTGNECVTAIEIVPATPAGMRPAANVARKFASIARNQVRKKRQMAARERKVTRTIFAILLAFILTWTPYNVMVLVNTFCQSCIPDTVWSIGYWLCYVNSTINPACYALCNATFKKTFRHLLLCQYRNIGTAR
Put plainly: Functional mobilization of intracellular calcium (FLIPR) in M4-CHO cells. To be noted: Table 4; for Emax: 100% efficacy is the maximum response obtained with the Carbachol control; for M4 Activity: modulating M4 receptor. The format is cell-based. In a few lines: as §1
On the technique in general: Calcium flux is commonly read through the fluorescence of an indicator in the cells.

With `CCC(C)C(=O)N1C2CCC1CC(N1CCC3(CC1)CN(C(C)=O)c1ccccc13)C2` (centres unmarked) [compound 743], at M1 muscarinic receptor, the Emax was less than 25% and the “M1 Activity” value was “x (activity was measured to be greater than 5.0 μM)”. At M4 muscarinic receptor, the Emax is less than 25% and the “M4 Activity” value is on record as “x (activity was measured to be greater than 5.0 μM)”.

For the molecule `O=C(N[C@H]1CCC2(CCN(C3CC4CCC(C4)C3)CC2)c2ccccc21)C1CC1` (some centres unmarked) [compound 744], at M1 muscarinic receptor, the Emax fell in the range of 25 to 100% and the “M1 Activity” value is recorded as “xxx (activity was measured to be less than 2.0 μM)”. Besides, at M4 muscarinic receptor, the Emax was in the range of 25 to 100% and the “M4 Activity” value is on record as “xxx (activity was measured to be less than 2.0 μM)”.

Turning to `CCOC(=O)N1C2CCC1CC(N1CCCC3(CC1)CN(C(C)=O)c1ccc(F)cc13)C2` (centres unmarked) [compound 746], at M1 muscarinic receptor, the Emax lay in the range of 25 to 100% and the “M1 Activity” value was “xxx (activity was measured to be less than 2.0 μM)”. Moreover, on M4 muscarinic receptor, the Emax is 25 to 100% and the “M4 Activity” value is reported as “xxx (activity was measured to be less than 2.0 μM)”.

For the molecule `C#CCCOC(=O)N1C2CCC1CC(N1CCC3(CC1)CN(C(C)=O)c1ccccc13)C2` (centres unmarked) [compound 747], at M1 muscarinic receptor, the Emax lay in the range of 25 to 100% and the “M1 Activity” value was “xxx (activity was measured to be less than 2.0 μM)”. At M4 muscarinic receptor, the Emax is 25 to 100% and the “M4 Activity” value is “xxx (activity was measured to be less than 2.0 μM)”.

For the molecule `CCCOC(=O)N1CCCC(N2CCC3(CC2)CN(C(=O)N(C)C)c2ccc(F)cc23)CC1` (centres unmarked) [compound 749], on M1 muscarinic receptor, the Emax was in the range of 25 to 100% and the “M1 Activity” value was “xxx (activity was measured to be less than 2.0 μM)”. Further, at M4 muscarinic receptor, the Emax lay in the range of 25 to 100% and the “M4 Activity” value was “xxx (activity was measured to be less than 2.0 μM)”.

Regarding `CCOC(=O)N1CCC(N2CCC3(CC2)CN(C(=O)N(CC)CC)c2ccccc23)CC1` [compound 750], on M1 muscarinic receptor, the Emax is 25 to 100% and the “M1 Activity” value is “xxx (activity was measured to be less than 2.0 μM)”. In addition, on M4 muscarinic receptor, the Emax was in the range of 25 to 100% and the “M4 Activity” value is on record as “xxx (activity was measured to be less than 2.0 μM)”.

For `CCOC(=O)N1CCC(N2CCC3(CC2)CN(C2CCCCC2=O)c2ccc(F)cc23)CC1` (centres unmarked) [compound 751], on M1 muscarinic receptor, the Emax was 25 to 100% and the “M1 Activity” value is on record as “xxx (activity was measured to be less than 2.0 μM)”. At M4 muscarinic receptor, the Emax was in the range of 25 to 100% and the “M4 Activity” value is reported as “xxx (activity was measured to be less than 2.0 μM)”.

Regarding `CCOC(=O)N1CCC(N2CCC3(CC2)CN(c2cnccn2)c2ccc(F)cc23)CC1` [compound 752], on M1 muscarinic receptor, the Emax fell in the range of 25 to 100% and the “M1 Activity” value was “xxx (activity was measured to be less than 2.0 μM)”. Also, on M4 muscarinic receptor, the Emax was 25 to 100% and the “M4 Activity” value is on record as “xxx (activity was measured to be less than 2.0 μM)”.

For `COC(=O)N1CCC(N2CCC3(CC2)CN(C(C)=O)c2ccccc23)CC1` [compound 753], at M1 muscarinic receptor, the Emax is 25 to 100%; the “M1 Activity” value was “xx (activity was measured to be between 2.0 μM and 5.0 μM)”. On M4 muscarinic receptor, the Emax lay within 25 to 100%; the “M4 Activity” value was “xx (activity was measured to be between 2.0 μM and 5.0 μM)”.

Take `CCOC(=O)N1C2CCC1CC(N1CCC3(CC1)CN(C(C)=O)c1ccc(OC)cc13)C2` (centres unmarked) [compound 754]: at M1 muscarinic receptor, the Emax fell in the range of 25 to 100% and the “M1 Activity” value is recorded as “xxx (activity was measured to be less than 2.0 μM)”. In addition, at M4 muscarinic receptor, the Emax lay within 25 to 100% and the “M4 Activity” value is “xxx (activity was measured to be less than 2.0 μM)”.

In the case of `CCN(CC)C(=O)N[C@H]1CC2(CCN(C3CC4CC[C@@H]3C4)CC2)c2ccccc21` (some centres unmarked) [compound 755], at M1 muscarinic receptor, the Emax is less than 25% and the “M1 Activity” value is reported as “x (activity was measured to be greater than 5.0 μM)”. Also, on M4 muscarinic receptor, the Emax is 25 to 100% and the “M4 Activity” value is “xxx (activity was measured to be less than 2.0 μM)”.

By Emax is commonly meant the maximal effect, on the per cent scale that the assay sets.
